Experimental data published in patent publication US10752900B2, “Oligonucleotides for modulating gene expression and uses thereof” (BIOGENERA S.P.A., priority 2012, dated 2020).

How the values were obtained:
Kelly cells = assay: Cellular proliferation assay (ATP-Lite), Kelly cells; format: cell-based, human; conditions: 2.5 μM
Protocol: For the purpose of assessing the gene modulation ability of the oligonucleotides of the present invention, the effect of their administration on cell viability was determined.
(§1) For this purpose 5×10^3 cells per well were seeded into 96-well cell culture plates (experiments conducted in triplicate) with 100 μl of OPTI-MEM (GIBCO BRL) medium containing 4% FBS and 2 mM of L-glutammine.
The PNA oligonucleotides were administered at different concentrations (1 μM-2.5 μM-5 μM-10 μM) in order to observe a dose-effect relationship.
As regards all the other oligonucleotides, the concentrations at which they administered are listed in the paragraph:
The viability of the treated cells was determined at 48, 72, 96 and 168 hours after treatment.
(§2) Cell viability was assessed by means of an ATP-Lite assay (Luminescence ATP Detection Assay System, PerkinElmer) and is reported as the ratio between the average signal of the treated wells compared to the average value of the wells of untreated control cells. The cells were processed following the instructions provided with the kit.
The assays were performed on the same cell lines used to determine the levels of the MYCN gene messenger and listed in the paragraph: Treatments with Oligonucleotides—QT-PCR.
As far as the PNA oligonucleotides are concerned, the results regarding their ability to inhibit the transcription of the MYCN gene and proliferation of Kelly cells are shown in Table 1.
(§3) The ability of the tested oligonucleotides to inhibit the messenger of the gene of interest was measured and the proliferative capacity of the cells following administration of the oligonucleotides was also assessed.

PLK4 = assay: QT-PCR, PLK4 mRNA in Kelly cells; format: cell-based, human; conditions: Table 11; PLKA4, Kelly cells; 2.5 μM
Protocol: (§4) For the purpose of assessing the ability of the oligonucleotides of the present invention to modulate the expression of the target genes, their ability to reduce the quantity of messenger RNA was analyzed using the Real-Time PCR technique.
(§5) The cells were treated with the oligonucleotides, adding FBS up to 4% 6 hours after administration of the same. After 24 hours the total RNA was extracted from each well and purified using the RNeasy Mini Kit (QIAGEN).
(§6) As a control, use was made of the same cell lines as listed above treated with sterile water instead of oligonucleotides. Each RNA sample was quantified (in duplicate) using a NanoDrop ND-1000 spectrophotometer (NanoDrop Technologies). The first strand of cDNA was produced using the cDNA Synthesis Kit for RT-PCR (Roche). For the cDNA synthesis reaction a total of 1 μg of RNA was used. For the real-time PCR, 10 ng of cDNA in a final volume of 20 μl was used with SYBR Green Master Mix 2× (Applied Biosystems) (3 identical experiments were conducted in triplicate). Two housekeeping genes were used as positive controls: GAPDH and beta-actin (ACTB). […]
as §3

MYC [1] = assay: QT-PCR, MYC mRNA in H82 cells; format: cell-based; conditions: Table 11, 2.5 μM
Protocol: as §4, §5
(§7) As a control, use was made of the same cell lines as listed above treated with sterile water instead of oligonucleotides. Each RNA sample was quantified (in duplicate) using a NanoDrop ND-1000 spectrophotometer (NanoDrop Technologies). The first strand of cDNA was produced using the cDNA Synthesis Kit for RT-PCR (Roche). For the cDNA synthesis reaction a total of 1 μg of RNA was used. For the real-time PCR, 10 ng of cDNA in a final volume of 20 μl was used with SYBR Green Master Mix 2× (Applied Biosystems) (3 identical experiments were conducted in triplicate). Two housekeeping genes were used as positive controls: GAPDH and beta-actin (ACTB).
(§8) The conditions of the QT-PCR reaction were: 10 min at 95° C., 20 sec at 95° C., and 30 sec at 60° C., for 50 cycles.
(§9) The oligonucleotides were tested in vitro (at a concentration of 2.5 μM) to determine their ability to inhibit the transcription of the gene they are directed against by measuring the levels of the gene messenger in cellular models in which the gene of interest is overexpressed. The methods used are the ones described in example 1.
(§10) In particular, SEQ ID NO: 66-69 (directed against MYCN) were tested in vitro in the Kelly and H69 cell lines; SEQ ID NO: 70-74 (directed against MYC) were tested in vitro in the H82 and RD cell lines, SEQ ID NO: 75, 76 (directed against BIRC5) were tested in vitro in the Kelly cell line, SEQ ID NO: 77-79 (directed against ALK) were tested in vitro in the Kelly cell line, SEQ ID NO: 80-82 (directed against BCL2) were tested in vitro in the Kelly cell line and SEQ ID NO: 83, 84 (directed against PLK4) were tested in vitro in the Kelly cell line.
as §3

H82 = assay: Cellular proliferation, H82 cells; format: cell-based; conditions: Table 11, MYC-directed PNA, 2.5 μM
Protocol: as §1, §2, §9, §10, §3

RD = assay: Cellular proliferation, RD cells; format: cell-based; conditions: Table 11, MYC-directed PNA, 2.5 μM
Protocol: as §1, §2, §9, §10, §3

MYC [2] = assay: QT-PCR, MYC mRNA in RD cells; format: cell-based; conditions: Table 11, 2.5 μM
Protocol: as §4, §5, §7, §8, §9, §10, §3

ALK = assay: QT-PCR, ALK mRNA in Kelly cells; format: cell-based, human; conditions: Table 11, 2.5 μM
Protocol: as §4, §5, §7, §8
as §9, with “1. […]” for “1.”
as §3

BIRC5 = assay: QT-PCR, BIRC5 mRNA in Kelly cells; format: cell-based, human; conditions: Table 11, 2.5 μM
Protocol: as §4, §5, §6, §3

BCL2 = assay: QT-PCR, BCL2 mRNA in Kelly cells; format: cell-based, human; conditions: Table 11, 2.5 μM
Protocol: as §4, §5, §7, §8
as §9, with “1. […]” for “1.”
as §3

Row | Substance | mRNA inhibit. (%) (MYC [1]) | Cell Prolif. (%) (H82) | Cell Prolif. (%) (RD) | mRNA inhibit. (%) (MYC [2]) | further results
1 | SEQ ID NO: 84: PNA GGACGGCAAGCGGCGG directed against PLK4 (all peptide nucleic acid (PNA); antigene PNA) |  |  |  |  | Cell Prolif. (%) (Kelly cells; Table 11, PLK4-directed PNA): 49%; mRNA inhibit. (%) (PLK4): 74%
2 | SEQ ID NO: 72: PNA CGGCCGGCTAGGGTGG directed against MYC (all peptide nucleic acid (PNA); antigene PNA) | 52 | 64 | 53 | 58 | 
3 | SEQ ID NO: 71: PNA GCGGCCGGCTAGGGTG directed against MYC (all peptide nucleic acid (PNA); antigene PNA) | 46 | 75 | 65 | 42 | 
4 | SEQ ID NO: 83: PNA ACGGCAAGCGGCGGGA directed against PLK4 (all peptide nucleic acid (PNA); antigene PNA) |  |  |  |  | Cell Prolif. (%) (Kelly cells; Table 11, PLK4-directed PNA): 59%; mRNA inhibit. (%) (PLK4): 62%
5 | SEQ ID NO: 77: PNA GCAGGAGAGGACGGTA directed against ALK (all peptide nucleic acid (PNA); antigene PNA) |  |  |  |  | Cell Prolif. (%) (Kelly cells; Table 11, ALK-directed PNA): 55%; mRNA inhibit. (%) (ALK): 57%
6 | SEQ ID NO: 76: PNA GGCGGCGGCATGGGTG directed against BIRC5 (all peptide nucleic acid (PNA); antigene PNA) |  |  |  |  | mRNA inhibit. (%) (BIRC5): 78%; Cell Prolif. (%) (Kelly cells; Table 11, BIRC5-directed PNA): 35%
7 | SEQ ID NO: 78: PNA CAGGAGAGGACGGTAC directed against ALK (all peptide nucleic acid (PNA); antigene PNA) |  |  |  |  | Cell Prolif. (%) (Kelly cells; Table 11, ALK-directed PNA): 46%; mRNA inhibit. (%) (ALK): 68%
8 | SEQ ID NO: 70: PNA CTCAGAGGCTTGGCGG directed against MYC (all peptide nucleic acid (PNA); antigene PNA) | 43 | 79 | 73 | 34 | 
9 | SEQ ID NO: 81: PNA GGGAAGGATGGCGCAC directed against BCL2 (all peptide nucleic acid (PNA); antigene PNA) |  |  |  |  | Cell Prolif. (%) (Kelly cells; Table 11, BCL2-directed PNA): 58%; mRNA inhibit. (%) (BCL2): 62%
10 | SEQ ID NO: 73: PNA CGACGGCGGTGGCGGG directed against MYC (all peptide nucleic acid (PNA); antigene PNA) | 56 | 65 | 51 | 59 | 
11 | SEQ ID NO: 80: PNA GGATGGCGCACGCTGG directed against BCL2 (all peptide nucleic acid (PNA); antigene PNA) |  |  |  |  | Cell Prolif. (%) (Kelly cells; Table 11, BCL2-directed PNA): 62%; mRNA inhibit. (%) (BCL2): 59%
12 | SEQ ID NO: 74: PNA GGACGGGGGCGGTGGA directed against MYC (all peptide nucleic acid (PNA); antigene PNA) | 61 | 61 | 47 | 64 | 
13 | SEQ ID NO: 79: PNA GGCAGGAGAGGACGGT directed against ALK (all peptide nucleic acid (PNA); antigene PNA) |  |  |  |  | Cell Prolif. (%) (Kelly cells; Table 11, ALK-directed PNA): 39%; mRNA inhibit. (%) (ALK): 79%
14 | SEQ ID NO: 82: PNA CCACGGTGGTGGAGGA directed against BCL2 (all peptide nucleic acid (PNA); antigene PNA) |  |  |  |  | Cell Prolif. (%) (Kelly cells; Table 11, BCL2-directed PNA): 55%; mRNA inhibit. (%) (BCL2): 68%
15 | SEQ ID NO: 75: PNA GCGGCGGCATGGGTGC directed against BIRC5 (all peptide nucleic acid (PNA); antigene PNA) |  |  |  |  | mRNA inhibit. (%) (BIRC5): 69%; Cell Prolif. (%) (Kelly cells; Table 11, BIRC5-directed PNA): 43%
